Reference: US20060188909A1, “Business methods for assessing nucleic acids” (Medical College of Ohio, priority 2005, published 2006)

Experiments:
[1] = tested on: cytochrome p450 IA1 (CYPIAI) gene expression; assay: MC RT-PCR with Celi competitive templates, CYPIAI induction in BEP2D cells; format: cell-based, human; conditions: 10 μM, exposed vs control cells, about the same cDNA loaded
Procedure: (§1) In a second set of experiments, multiplex competitive reverse transcriptase polymerase chain reaction (MC RT-PCR) with competitive templates were prepared by the Celi method to evaluate the cytochrome p450 (CYP) IAI gene in β-napthoflavone-exposed BEP2D cells. The induction of CYPIAI gene expression was evaluated using both MC RT-PCR with Celi competitive templates, and Northern analysis. Competitive templates were prepared for both the CYPIAI and GAPDH genes. The primers used to prepare the competitive template for GAPDH were: […]
The PCR amplification conditions were the same as described for experiments using the competitive templates prepared for GAPDH and GSHPx by the Higuchi method except the annealing temperature was 55 degrees centigrade and the amplification was carried out for 38 cycles.
Because the native and competitive templates separate without prior restriction endonuclease digestion, samples were taken directly from the PCR reaction tube and applied to ethidium bromide stained 3% Nusieve, 1% LE agarose gels. It was then possible to quantify the products by taking a negative photograph of the gel using Polaroid 665 positive/negative instant film, subjecting the negative photograph to densitometry. […]

[2] = tested on: cytochrome p450 IA1 (CYPIAI) gene expression; assay: Northern analysis of CYPIAI induction in BEP2D cells; format: cell-based, human; conditions: 10 μM, varying times, vs 0.1% DMSO control
Procedure: as §1
RNA from BEP2D cells incubated for varying times with […] (10 μM) was either electrophoresed on a 1% LE formaldehyde denaturing gel for Northern analysis or MC RT-PCR amplified, as described above. For Northern analysis, following transfer of the RNA to GeneScreen, the filters were hybridized with ^32P-labeled CYPIAI cDNA.
FIG. 36A illustrates Northern analysis of RNA obtained from BEP2D cells that were treated with 0.1% DMSO as a control, or, β-napthoflavone in an effort to induce cytochrome p450 IA1 (CYPIAI). FIG. 36B illustrates DNA PCR-amplified from serial dilutions of cDNA from the same cells used in FIG. 36SA. The cDNA was co-amplified in the presence of competitive templates for GAPDH and CYPIAI, according to some embodiments of the instant invention.

O=c1cc(-c2ccccc2)oc2ccc3ccccc3c12 [β-napthoflavone]
band representing the native CYPIAI gene (MC RT-PCR, GAPDH reference) [1]: much more strongly represented
gene expression of the CYPIAI gene (Northern analysis) [2]: increase
